Test results as given in patent EP0261693A1, “Treated lipid regulator” (WARNER-LAMBERT COMPANY, priority 1986, dated 1988).
In brackets after ≈: the same amount, converted by molar mass. Like-named read-outs stand apart in the source and are kept apart here.

Experiment: Concentration (solubility) of gemfibrozil in buffer, from absorbance at 280 nm
Format: physicochemical
Details: aqueous buffer, excess gemfibrozil agitated overnight at room temperature, filtered, read-out: concentration of gemfibrozil in each buffer
Procedure: Gemfibrozil solutions were prepared in 0.05 M acetate buffer, pH 4.5, and 0.05 M phosphate buffer, pH 6.0 and 7.5 as follows: • Gemfibrozil solutions were prepared by adding an excess of gemfibrozil to the desired volume of buffer and agitating overnight on a shaker at room temperature. The resulting suspension was vacuum filtered. Gemfibrozil concentration was determined from absorbance at 280 nm, using [formula]
Ultraviolet absorbance measurements were obtained on a Beckman DU-7 spectrophotometer.
The concentration of gemfibrozil in each buffer, determined from absorbance at 280 nm was: pH 4.5, 0.014 mg/ml; pH 6.0, 0.150 mg/ml; pH 7.5, 1.711 mg/ml. Cholestyramine (10 mg) was added to 20 ml of each gemfibrozil solution and the mixtures were agitated for 2 hours. The mixtures were filtered and the concentration of unboud gemfibrozil was determined.

Cc1ccc(C)c(OCCCC(C)(C)C(=O)O)c1 [gemfibrozil]
solubility thermodynamic (0.05 M acetate buffer, pH 4.5): 14 µg/mL (≈ 55.9 µM) | solubility thermodynamic (0.05 M phosphate buffer, pH 6.0): 150 µg/mL (≈ 599 µM) | solubility thermodynamic (0.05 M phosphate buffer, pH 7.5): 1710 µg/mL (≈ 6830 µM)
